In patent publication US6686355B2, “Biphenyl sulfonamides useful as matrix metalloproteinase inhibitors” (Warner-Lambert Company, priority 2001, dated 2004):

How the values were obtained:
Assay type in all cases: biochemical
[1] = biological target: T1, MMP-2FL (full length Gelatinase A) (Homo sapiens, UniProt P08253); assay: Thiopeptolide hydrolysis assay, MMP-2FL; details: thiopeptolide substrate, HEPES pH 7.0, 22° C.
T1 sequence (P08253 110-660): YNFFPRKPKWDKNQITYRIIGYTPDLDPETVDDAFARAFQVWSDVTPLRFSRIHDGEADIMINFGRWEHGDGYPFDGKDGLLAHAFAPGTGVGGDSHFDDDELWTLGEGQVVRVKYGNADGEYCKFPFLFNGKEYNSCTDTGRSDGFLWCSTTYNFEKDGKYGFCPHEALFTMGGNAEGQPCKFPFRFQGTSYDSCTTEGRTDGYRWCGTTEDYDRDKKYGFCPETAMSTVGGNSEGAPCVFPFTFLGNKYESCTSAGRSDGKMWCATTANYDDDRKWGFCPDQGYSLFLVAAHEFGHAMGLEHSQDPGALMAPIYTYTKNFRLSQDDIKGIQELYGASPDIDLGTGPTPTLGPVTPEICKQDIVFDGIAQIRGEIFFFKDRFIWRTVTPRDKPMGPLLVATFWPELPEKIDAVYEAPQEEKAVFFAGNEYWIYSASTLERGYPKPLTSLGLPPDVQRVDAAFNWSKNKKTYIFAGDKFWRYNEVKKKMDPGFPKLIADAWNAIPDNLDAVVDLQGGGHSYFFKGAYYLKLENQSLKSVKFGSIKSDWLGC
Text: (§1) The assays measure the amount by which a test compound reduces the hydrolysis of a thiopeptolide substrate catalyzed by a matrix metalloproteinase enzyme. Such assays are described in detail by Ye et al., in Biochemistry, 1992;31(45):11231-11235, which is incorporated herein by reference.
(§2) Thiopeptolide substrates show virtually no decomposition or hydrolysis at or below neutral pH in the absence of a matrix metalloproteinase enzyme. A typical thiopeptolide substrate commonly utilized for assays is Ac-Pro-Leu-Gly-thioester-Leu-Leu-Gly-OEt. A 100 μL assay mixture will contain 50 mM of N-2-hydroxyethylpiperazine-N′-2-ethanesulfonic acid buffer (“HEPES”) at pH 7.0, 10 mM CaCl2, 100 μM thiopeptolide substrate, and 1 mM 5,5″-dithio-bis-(2-nitro-benzoic acid) (DTNB). The thiopeptolide substrate concentration may be varied from, for example, 10 to 800 μM to obtain Km and Kcat values. The change in absorbance at 405 nm is monitored on a Thermo Max microplate reader (Molecular Devices, Menlo Park, Calif.) at room temperature (22° C.). The calculation of the amount of hydrolysis of the thiopeptolide substrate is based on E412=13600 M^−1 cm^−1 for the DTNB-derived product 3-carboxy4-nitrothiophenoxide. Assays are carried out with and without matrix metalloproteinase inhibitor compounds, and the amount of hydrolysis is compared for a determination of inhibitory activity of the test compounds.
(§3) Several representative compounds have been evaluated for their ability to inhibit various matrix metalloproteinase enzymes. In Table I, MMP-1FL refers to full length interstitial collagenase; MMP-2FL refers to full length Gelatinase A; MMP-3CD refers to the catalytic domain of stromelysin-1; MMP-7FL refers to full length matrilysin; MMP-9FL refers to full length Gelatinase B; MMP-13CD refers to the catalytic domain of collagenase 3; and MMP-14CD refers to the catalytic domain of MMP-14. Test compounds were evaluated at various concentrations in order to determine their respective IC50 values, the micromolar concentration of compound required to cause a 50% inhibition of the catalytic activity of the respective enzyme.

[2] = biological target: MMP-3CD (catalytic domain of stromelysin-1) (Homo sapiens, UniProt P08254); assay: Thiopeptolide hydrolysis assay, MMP-3CD; details: thiopeptolide substrate, MES pH 6.0
Sequence of MMP-3CD (catalytic domain of stromelysin-1) (P08254 100-272 limits assumed): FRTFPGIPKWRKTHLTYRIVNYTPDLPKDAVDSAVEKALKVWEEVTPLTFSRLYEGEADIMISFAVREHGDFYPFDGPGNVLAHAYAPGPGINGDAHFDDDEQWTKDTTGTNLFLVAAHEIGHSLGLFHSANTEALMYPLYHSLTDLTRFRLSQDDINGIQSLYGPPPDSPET
Text: as §1, §2, §3
It should be appreciated that the assay buffer used with MMP-3CD was 50 mM of 2-morpholinoethanesulfonic acid monohydrate (“MES”) at pH 6.0 rather than the HEPES buffer at pH 7.0 described above.

[3] = biological target: MMP-9FL (full length Gelatinase B) (Homo sapiens, UniProt P14780); assay: Thiopeptolide hydrolysis assay, MMP-9FL; details: thiopeptolide substrate, HEPES pH 7.0, 22° C.
Sequence of MMP-9FL (full length Gelatinase B) (P14780 94-707, species assumed): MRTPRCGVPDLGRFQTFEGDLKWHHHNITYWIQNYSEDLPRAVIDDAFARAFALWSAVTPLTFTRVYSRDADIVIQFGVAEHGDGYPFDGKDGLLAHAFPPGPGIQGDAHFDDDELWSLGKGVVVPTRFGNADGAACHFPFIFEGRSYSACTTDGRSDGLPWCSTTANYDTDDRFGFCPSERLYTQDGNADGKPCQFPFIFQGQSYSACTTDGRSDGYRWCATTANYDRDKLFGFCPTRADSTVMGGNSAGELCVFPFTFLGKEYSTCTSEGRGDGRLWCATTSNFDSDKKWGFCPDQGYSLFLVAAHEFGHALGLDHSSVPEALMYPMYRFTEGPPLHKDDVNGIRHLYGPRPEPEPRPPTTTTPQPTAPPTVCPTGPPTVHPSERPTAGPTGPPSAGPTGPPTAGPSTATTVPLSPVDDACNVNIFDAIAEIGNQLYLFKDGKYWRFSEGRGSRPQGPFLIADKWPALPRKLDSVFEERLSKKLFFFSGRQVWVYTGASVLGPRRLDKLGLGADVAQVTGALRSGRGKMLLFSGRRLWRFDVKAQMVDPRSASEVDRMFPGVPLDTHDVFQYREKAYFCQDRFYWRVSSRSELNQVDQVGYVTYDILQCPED
Text: as §1, §2, §3

[4] = biological target: MMP-13CD (catalytic domain of collagenase 3) (Homo sapiens, UniProt P45452); assay: Thiopeptolide hydrolysis assay, MMP-13CD; details: thiopeptolide substrate, HEPES pH 7.0, 22° C.
Text: as §1, §2, §3

Row | Structure (SMILES) | IC50 [1] [µM] | IC50 [2] [µM] | IC50 [3] [µM] | IC50 [4] [µM]
1 | CC1(C)SCCN(S(=O)(=O)c2ccc(-c3cccc([N+](=O)[O-])c3)cc2)[C@H]1C(=O)O [Example 27, (S)-2,2-Dimethyl-4-(3′-nitro-biphenyl-4-sulfonyl)-thiomorpholine-3-carboxylic acid] | > 100 | > 100 | > 100 | > 100
2 | CC1(C)SCCN(S(=O)(=O)c2ccc(-c3cccc4ccccc34)cc2)[C@H]1C(=O)O [Example 28, (S)-2,2-Dimethyl-4-(4-naphthalen-1-yl-benzenesulfonyl)-thiomorpholine-3-carboxylic acid] | 2.07 | 2.2 | 22.8 | 2.67
3 | CC1(C)SCCN(S(=O)(=O)c2ccc(-c3ccc(Cl)cc3)cc2)[C@H]1C(=O)O [Example 29, (S)-4-(4′-Chloro-biphenyl-4-sulfonyl)-2,2-dimethyl-thiomorpholine-3-carboxylic acid] | > 100 | > 100 | > 100 | > 100
4 | CC1(C)SCCN(S(=O)(=O)c2ccc(-c3ccc(C=O)cc3)cc2)[C@H]1C(=O)O [Example 30, (S)-4-(4′-Formyl-biphenyl-4-sulfonyl)-2,2-dimethyl-thiomorpholine-3-carboxylic acid] | 0.042 | 0.0154 | 3.6 | 0.096
5 | Cc1cccc(-c2ccc(S(=O)(=O)N3CCSC(C)(C)[C@@H]3C(=O)O)cc2)c1 [Example 31, (S)-2,2-Dimethyl-4-(3′-methyl-biphenyl-4-sulfonyl)-thiomorpholine-3-carboxylic acid] | > 100 | > 100 | 1.57 | > 100
6 | CC1(C)SCCN(S(=O)(=O)c2ccc(-c3ccc(F)cc3)cc2)[C@H]1C(=O)O [Example 32, (S)-4-(4′-Fluoro-biphenyl-4-sulfonyl)-2,2-dimethyl-thiomorpholine-3-carboxylic acid] | 0.133 | 0.0365 | 4.43 | 0.145
7 | CC1(C)SCCN(S(=O)(=O)c2ccc(-c3ccc4c(c3)OCO4)cc2)[C@H]1C(=O)O [Example 33, (S)-4-(4-1,3-Benzodioxol-5-yl-benzenesulfonyl)-2,2-dimethyl-thiomorpholine-3-carboxylic acid] | 0.0185 | 0.0148 | 3.15 | 0.0443
8 | CC1(C)SCCN(S(=O)(=O)c2ccc(-c3cccc(Cl)c3)cc2)[C@H]1C(=O)O [Example 34, (S)-4-(3′-Chloro-biphenyl-4-sulfonyl)-2,2-dimethyl-thiomorpholine-3-carboxylic acid] | 0.187 | 0.0703 | 10.3 | 0.243
9 | CC1(C)SCCN(S(=O)(=O)c2ccc(-c3cccc(C=O)c3)cc2)[C@H]1C(=O)O [Example 35, (S)-4-(3′-Formyl-biphenyl-4-sulfonyl)-2,2-dimethyl-thiomorpholine-3-carboxylic acid] | 0.035 | 0.0154 | 0.479 | 0.021
10 | CC1(C)SCCN(S(=O)(=O)c2ccc(-c3ccc(F)c(Cl)c3)cc2)[C@H]1C(=O)O [Example 42, (S)-4-(3′-Chloro-4′-fluoro-biphenyl-4-sulfonyl)-2,2-dimethyl-thiomorpholine-3-carboxylic acid] | 0.16 | 0.0289 | 9.15 | 0.113
11 | CC(C)c1ccc(-c2ccc(S(=O)(=O)N3CCSC(C)(C)[C@@H]3C(=O)O)cc2)cc1 [Example 44, (S)-4-(4′-Isopropyl-biphenyl-4-sulfonyl)-2,2-dimethyl-thiomorpholine-3-carboxylic acid] | 0.015 | 0.0088 | 0.37 | 0.02
12 | CC(C)(C)c1ccc(-c2ccc(S(=O)(=O)N3CCSC(C)(C)[C@@H]3C(=O)O)cc2)cc1 [Example 49, (S)-4-(4′-tert-Butyl-biphenyl-4-sulfonyl)-2,2-dimethyl-thiomorpholine-3-carboxylic acid] | 0.23 | 0.039 | 1.5 | 0.061
13 | CC1(C)SCCN(S(=O)(=O)c2ccc(-c3ccc(Cl)s3)cc2)[C@H]1C(=O)O [Example 50, (S)-4-[4-(5-Chloro-thiophen-2-yl)-benzenesulfonyl]-2,2-dimethyl-thiomorpholine-3-carboxylic acid] | 0.024 | 0.019 | 1.5 | 0.12
14 | Cc1cc(-c2ccc(S(=O)(=O)N3CCSC(C)(C)[C@@H]3C(=O)O)cc2)ccc1F [Example 51, (S)-4-(4′-Fluoro-3′-methyl-biphenyl-4-sulfonyl)-2,2-dimethyl-thiomorpholine-3-carboxylic acid] | 0.027 | 0.01 | 1 | 0.012
15 | Cc1ccc(-c2ccc(S(=O)(=O)N3CCSC(C)(C)[C@@H]3C(=O)O)cc2)s1 [Example 52, (S)-2,2-Dimethyl-4-[4-(5-methyl-thiophen-2-yl)-benzenesulfonyl]-thiomorpholine-3-carboxylic acid] | 0.013 | 0.014 | 0.52 | 0.036
16 | COc1cc(-c2ccc(S(=O)(=O)N3CCSC(C)(C)[C@@H]3C(=O)O)cc2)cc(OC)c1OC [Example 55, (S)-2,2-Dimethyl-4-(3′,4′,5′-trimethoxy-biphenyl-4-sulfonyl)-thiomorpholine-3-carboxylic acid] | 8.8 | 8.9 | 59 | 7.7
17 | CC1(C)SCCN(S(=O)(=O)c2ccc(-c3ccc(Cl)cc3Cl)cc2)[C@H]1C(=O)O [Example 56, (S)-4-(2′,4′-Dichloro-biphenyl-4-sulfonyl)-2,2-dimethyl-thiomorpholine-3-carboxylic acid] | 0.81 | 1.5 | 18 | 1.1
18 | CC1(C)SCCN(S(=O)(=O)c2ccc(-c3ccc(C(F)(F)F)cc3)cc2)[C@H]1C(=O)O [Example 57, (S)-2,2-Dimethyl-4-(4′-trifluoromethyl-biphenyl-4-sulfonyl)-thiomorpholine-3-carboxylic acid] | 0.0088 | 0.0045 | 0.54 | 0.013
19 | CC1(C)SCCN(S(=O)(=O)c2ccc(-c3cccc(F)c3)cc2)[C@H]1C(=O)O [Example 58, (S)-4-(3′-Fluoro-biphenyl-4-sulfonyl)-2,2-dimethyl-thiomorpholine-3-carboxylic acid] | 0.134 | 0.082 | 6.3 | 0.425
20 | COc1cccc(OC)c1-c1ccc(S(=O)(=O)N2CCSC(C)(C)[C@@H]2C(=O)O)cc1 [Example 60, (S)-4-(2′,6′-Dimethoxy-biphenyl-4-sulfonyl)-2,2-dimethyl-thiomorpholine-3-carboxylic acid] | 39 | 9.95 |  | 25.5
21 | CC1(C)SCCN(S(=O)(=O)c2ccc(-c3cccc(C#N)c3)cc2)[C@H]1C(=O)O [Example 62, (S)-4-(3′-Cyano-biphenyl-4-sulfonyl)-2,2-dimethyl-thiomorpholine-3-carboxylic acid] | 6.2 | 0.83 |  | 4.9
22 | CC1(C)SCCN(S(=O)(=O)c2ccc(-c3ccccc3C=O)cc2)[C@H]1C(=O)O [Example 63, (S)-4-(2′-Formyl-biphenyl-4-sulfonyl)-2,2-dimethyl-thiomorpholine-3-carboxylic acid] | 68 | 21 |  | 62.5
